Source: the supplement of paper PMC10307832

Columns and labels:
Assay in all cases: relative viability (nuclei count vs DMSO), 5 days (fraction); higher = more cells survive
[1] = compound: COc1ccc(-c2ccc3c(N4CCOC[C@@H]4C)nc(N4CCOC[C@@H]4C)nc3n2)cc1CO [AZD8055] + O=C(CCCCCCC(=O)Nc1ccccc1)NO [Vorinostat] (partner 1 µM)
Procedure, shortened: (§1)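 Cells from lung cancer lines were seeded into 1536-well plates and, one day later, dosed by pin tool. Treatments were either a single drug or a fixed dose of an anchor drug with five library-drug doses (not always all listed) in √10 steps. After 5 days, nuclei were stained in a one-step fixation (final 0.05% Triton X-100, 1% formaldehyde, 1 ug/ml Hoechst) and counted on 4× images, and relative viability is the treated-to-vehicle nuclei ratio, as the median of duplicate plates.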

[2] = compound: COc1ccc(-c2ccc3c(N4CCOC[C@@H]4C)nc(N4CCOC[C@@H]4C)nc3n2)cc1CO [AZD8055] + Nc1nc2[nH]cc(CCc3ccc(C(=O)N[C@@H](CCC(=O)O)C(=O)O)cc3)c2c(=O)[nH]1 [Pemetrexed] (partner 0.2 µM)
Procedure, shortened: as §1

[3] = compound: COc1ccc(-c2ccc3c(N4CCOC[C@@H]4C)nc(N4CCOC[C@@H]4C)nc3n2)cc1CO [AZD8055] + Cc1nc(Nc2ncc(C(=O)Nc3c(C)cccc3Cl)s2)cc(N2CCN(CCO)CC2)n1 [Dasatinib] (partner 0.075 µM)
Procedure, shortened: as §1

[4] = compound: COc1ccc(-c2ccc3c(N4CCOC[C@@H]4C)nc(N4CCOC[C@@H]4C)nc3n2)cc1CO [AZD8055] + CC(=O)c1c(C)c2cnc(Nc3ccc(N4CCNCC4)cn3)nc2n(C2CCCC2)c1=O [Palbociclib] (partner 0.5 µM)
Procedure, shortened: as §1

Cell Line	relative viability ([1]; first compound 0.01 µM)	relative viability ([1]; first compound 0.03162 µM)	relative viability ([1]; first compound 0.1 µM)	relative viability ([1]; first compound 0.3162 µM)	relative viability ([1]; first compound 1 µM)	relative viability ([2]; first compound 0.01 µM)	relative viability ([2]; first compound 0.03162 µM)	relative viability ([2]; first compound 0.1 µM)	relative viability ([2]; first compound 0.3162 µM)	relative viability ([2]; first compound 1 µM)	relative viability ([3]; first compound 0.01 µM)	relative viability ([3]; first compound 0.03162 µM)	relative viability ([3]; first compound 0.1 µM)	relative viability ([3]; first compound 0.3162 µM)	relative viability ([3]; first compound 1 µM)	relative viability ([4]; first compound 0.01 µM)	relative viability ([4]; first compound 0.03162 µM)	relative viability ([4]; first compound 0.1 µM)	relative viability ([4]; first compound 0.3162 µM)	relative viability ([4]; first compound 1 µM)
NCI-H2087	0.679	1.03	0.734	0.152	0.223	0.646	0.587	0.588	0.427	0.292	0.957	0.637	0.792	0.292	0.216	0.212	0.198	0.159	0.113	0.141
NCI-H2126	0.82	0.739	0.505	0.496	0.405	0.693	0.622	0.649	0.579	0.401	0.535	0.5	0.464	0.281	0.316	0.323	0.329	0.362	0.284	0.323
NCI-H2170	0.815	0.734	0.487	0.271	0.226	0.287	0.288	0.255	0.24	0.248	0.557	0.558	0.333	0.205	0.197	0.331	0.314	0.233	0.173	0.143
NCI-H2228	0.918	0.541	0.416	0.271	0.242	0.41	0.345	0.233	0.171	0.171	0.429	0.358	0.136	0.144	0.171	0.696	0.477	0.388	0.168	0.166
NCI-H2342	0.766	0.702	0.651	0.501	0.53	0.748	0.785	0.542	0.49	0.549	0.316	0.288	0.268	0.293	0.304	0.489	0.537	0.458	0.473	0.426
NCI-H2347	0.424	0.66	0.406	0.304	0.352	0.456	0.449	0.442	0.414	0.435	0.307	0.29	0.252	0.235	0.213	0.428	0.44	0.384	0.346	0.352
NCI-H2405	1.19	0.918	0.796	0.36	0.373	1.06	0.987	0.803	0.34	0.342	0.225	0.204	0.215	0.188	0.183	0.51	0.47	0.384	0.336	0.295
NCI-H3122	0.809	0.999	0.877	0.442	0.338	0.229	0.228	0.231	0.227	0.225	0.653	0.684	0.783	0.223	0.292	0.194	0.197	0.155	0.147	0.117
